Where two headings read alike, the source gives them in different places.
Tests used:
CDK1/Cyclin E1 = CDK1/Cyclin E1 (Homo sapiens, UniProt P06493); assay: NanoBRET live-cell target engagement, CDK1-NanoLuc/Cyclin E1 in HEK-293; assay type: binding; conditions: 10µM, read-out: CDK1/E1 Inhibition at 10µM (%)
CDK8/Cyclin C = CDK8/Cyclin C (Homo sapiens, UniProt P49336); assay: NanoBRET live-cell target engagement, NanoLuc-CDK8/Cyclin C in HEK-293; assay type: binding; conditions: 10µM, read-out: CDK8/C Inhibition at 10µM (%)
CDK4/Cyclin D1 = CDK4/Cyclin D1 (Homo sapiens, UniProt P11802); assay: NanoBRET live-cell target engagement, NanoLuc-CDK4/Cyclin D1 in HEK-293; assay type: binding; conditions: 10µM, read-out: CDK4/D1 Inhibition at 10µM (%)
CDK17/Cyclin Y = CDK17/Cyclin Y (Homo sapiens, UniProt Q00537); assay: NanoBRET live-cell target engagement, CDK17-NanoLuc/Cyclin Y in HEK-293; assay type: binding; conditions: for inhibition at 10 µM: read-out: CDK17/Y Inhibition at 10µM (%); for IC50: read-out: CDK17/Y IC50
CDK20/Cyclin H = CDK20/Cyclin H (Homo sapiens, UniProt Q8IZL9); assay: NanoBRET live-cell target engagement, NanoLuc-CDK20/Cyclin H in HEK-293; assay type: binding; conditions: 10µM, read-out: CDK20/H Inhibition at 10µM (%)
CDK13/Cyclin K = CDK13/Cyclin K (Homo sapiens, UniProt Q14004); assay: NanoBRET live-cell target engagement, CDK13-NanoLuc/Cyclin K in HEK-293; assay type: binding; conditions: 10µM, read-out: CDK13/K Inhibition at 10µM (%)
CDK15/Cyclin Y = CDK15/Cyclin Y (Homo sapiens, UniProt Q96Q40); assay: NanoBRET live-cell target engagement, NanoLuc-CDK15/Cyclin Y in HEK-293; assay type: binding; conditions: 10µM, read-out: CDK15/Y Inhibition at 10µM (%)
Chain of CDK15/Cyclin Y (Q96Q40 whole entry): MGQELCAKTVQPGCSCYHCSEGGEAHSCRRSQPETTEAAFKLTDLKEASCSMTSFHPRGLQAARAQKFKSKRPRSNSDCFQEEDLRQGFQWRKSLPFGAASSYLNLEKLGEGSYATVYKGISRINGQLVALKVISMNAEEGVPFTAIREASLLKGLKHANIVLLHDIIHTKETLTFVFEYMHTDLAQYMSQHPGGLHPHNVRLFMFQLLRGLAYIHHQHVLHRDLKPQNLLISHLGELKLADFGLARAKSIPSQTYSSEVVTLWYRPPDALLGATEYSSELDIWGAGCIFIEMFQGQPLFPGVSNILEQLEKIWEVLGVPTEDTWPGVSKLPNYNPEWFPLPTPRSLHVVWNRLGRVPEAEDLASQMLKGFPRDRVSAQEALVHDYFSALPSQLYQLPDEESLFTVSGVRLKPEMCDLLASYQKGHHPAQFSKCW
Chain of CDK15/Cyclin Y (Q8ND76 whole entry partner): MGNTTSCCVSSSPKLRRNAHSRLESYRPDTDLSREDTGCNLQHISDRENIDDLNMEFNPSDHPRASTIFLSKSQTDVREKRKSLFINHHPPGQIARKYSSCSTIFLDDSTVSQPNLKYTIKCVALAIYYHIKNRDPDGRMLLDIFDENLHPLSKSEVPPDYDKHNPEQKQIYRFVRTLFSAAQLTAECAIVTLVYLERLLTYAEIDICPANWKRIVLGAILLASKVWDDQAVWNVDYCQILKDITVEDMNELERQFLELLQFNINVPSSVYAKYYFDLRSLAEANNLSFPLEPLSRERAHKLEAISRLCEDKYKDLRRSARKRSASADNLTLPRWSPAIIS

CDK16/Cyclin Y = CDK16/Cyclin Y (Homo sapiens, UniProt Q00536); assay: NanoBRET live-cell target engagement, CDK16-NanoLuc/Cyclin Y in HEK-293; assay type: binding; conditions: for inhibition at 10 µM: read-out: CDK16/Y Inhibition at 10µM (%); for IC50: read-out: CDK16/Y IC50
CDK19/Cyclin C = CDK19/Cyclin C (Homo sapiens, UniProt Q9BWU1); assay: NanoBRET live-cell target engagement, NanoLuc-CDK19/Cyclin C in HEK-293; conditions: read-out: CDK19/C Inhibition at 10µM (%), 10µM
CDK14/Cyclin Y = CDK14/Cyclin Y (Homo sapiens, UniProt O94921); assay: NanoBRET live-cell target engagement, CDK14-NanoLuc/Cyclin Y in HEK-293; assay type: binding; conditions: 10µM, read-out: CDK14/Y Inhibition at 10µM (%)
Chain of CDK14/Cyclin Y (O94921 whole entry): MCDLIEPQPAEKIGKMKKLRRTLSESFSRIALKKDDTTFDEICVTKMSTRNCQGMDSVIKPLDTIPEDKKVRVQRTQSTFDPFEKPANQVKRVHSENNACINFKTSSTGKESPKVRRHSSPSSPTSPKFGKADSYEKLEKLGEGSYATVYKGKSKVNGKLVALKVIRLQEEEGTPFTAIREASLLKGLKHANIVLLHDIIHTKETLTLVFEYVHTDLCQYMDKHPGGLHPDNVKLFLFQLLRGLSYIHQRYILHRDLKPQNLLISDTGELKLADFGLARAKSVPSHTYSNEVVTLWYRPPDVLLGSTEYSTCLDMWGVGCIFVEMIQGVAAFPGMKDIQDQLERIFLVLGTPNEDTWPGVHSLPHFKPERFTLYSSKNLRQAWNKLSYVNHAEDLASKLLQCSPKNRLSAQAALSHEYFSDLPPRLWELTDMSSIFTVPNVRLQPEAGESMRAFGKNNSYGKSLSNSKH
Chain of CDK14/Cyclin Y (Q8ND76 whole entry partner): as the sequence (Q8ND76 whole entry partner) above

CDK2/Cyclin E1 = CDK2/Cyclin E1 (Homo sapiens, UniProt P24941); assay: NanoBRET live-cell target engagement, CDK2-NanoLuc/Cyclin E1 in HEK-293; assay type: binding; conditions: 10µM, read-out: CDK2/E1 Inhibition at 10µM (%)
CDK10/Cyclin L2 = CDK10/Cyclin L2 (Homo sapiens, UniProt Q15131); assay: NanoBRET live-cell target engagement, CDK10-NanoLuc/Cyclin L2 in HEK-293; conditions: read-out: CDK10/L2 Inhibition at 10µM (%), 10µM
CDK3/Cyclin E1 = CDK3/Cyclin E1 (Homo sapiens, UniProt Q00526); assay: NanoBRET live-cell target engagement, CDK3-NanoLuc/Cyclin E1 in HEK-293; assay type: binding; conditions: 10µM, read-out: CDK3/E1 Inhibition at 10µM (%)
Chain of CDK3/Cyclin E1 (Q00526 whole entry): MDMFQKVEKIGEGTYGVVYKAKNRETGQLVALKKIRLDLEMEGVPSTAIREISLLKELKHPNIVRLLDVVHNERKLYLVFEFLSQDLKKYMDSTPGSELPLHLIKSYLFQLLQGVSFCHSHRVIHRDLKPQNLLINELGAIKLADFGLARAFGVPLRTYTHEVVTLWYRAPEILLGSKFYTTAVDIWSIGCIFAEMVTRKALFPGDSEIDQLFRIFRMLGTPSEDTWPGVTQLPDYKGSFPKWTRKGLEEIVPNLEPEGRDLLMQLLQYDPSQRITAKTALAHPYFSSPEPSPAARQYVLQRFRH
Chain of CDK3/Cyclin E1 (P24864 whole entry partner): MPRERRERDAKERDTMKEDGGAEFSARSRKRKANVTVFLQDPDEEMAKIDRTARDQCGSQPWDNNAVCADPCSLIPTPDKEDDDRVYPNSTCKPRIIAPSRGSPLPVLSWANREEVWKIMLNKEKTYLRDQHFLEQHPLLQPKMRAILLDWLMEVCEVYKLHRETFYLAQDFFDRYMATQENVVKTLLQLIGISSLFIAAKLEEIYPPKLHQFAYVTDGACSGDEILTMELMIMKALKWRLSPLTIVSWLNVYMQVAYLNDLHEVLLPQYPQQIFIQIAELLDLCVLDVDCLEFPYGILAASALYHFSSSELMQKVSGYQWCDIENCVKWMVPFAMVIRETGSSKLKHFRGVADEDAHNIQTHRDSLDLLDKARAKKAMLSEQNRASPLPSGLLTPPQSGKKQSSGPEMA

CDK11B/Cyclin L2 = CDK11B/Cyclin L2 (Homo sapiens, UniProt P21127); assay: NanoBRET live-cell target engagement, CDK11B-NanoLuc/Cyclin L2 in HEK-293; assay type: binding; conditions: 10µM, read-out: CDK11b/L2 Inhibition at 10µM (%)
CDK7 = CDK7 (Homo sapiens, UniProt P50613); assay: NanoBRET live-cell target engagement, NanoLuc-CDK7 in HEK-293; assay type: binding; conditions: 10µM, read-out: CDK7 Inhibition at 10µM (%)
Chain of CDK7 (P50613 whole entry): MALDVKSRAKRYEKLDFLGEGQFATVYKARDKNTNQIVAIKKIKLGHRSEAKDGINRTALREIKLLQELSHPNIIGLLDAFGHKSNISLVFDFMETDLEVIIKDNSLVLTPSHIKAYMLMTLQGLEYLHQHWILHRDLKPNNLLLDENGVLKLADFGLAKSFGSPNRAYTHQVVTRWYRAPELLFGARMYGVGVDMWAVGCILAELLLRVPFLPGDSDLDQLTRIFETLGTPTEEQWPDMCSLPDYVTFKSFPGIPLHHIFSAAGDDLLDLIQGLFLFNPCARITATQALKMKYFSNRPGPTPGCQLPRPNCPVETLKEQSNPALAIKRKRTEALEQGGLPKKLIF

CDK9/Cyclin K = CDK9/Cyclin K (Homo sapiens, UniProt P50750); assay: NanoBRET live-cell target engagement, NanoLuc-CDK9/Cyclin K in HEK-293; assay type: binding; conditions: 10µM, read-out: CDK9/K Inhibition at 10µM (%)
CDK5/CDK5R1 = CDK5/CDK5R1 (Homo sapiens, UniProt Q00535); assay: NanoBRET live-cell target engagement, CDK5-NanoLuc/CDK5R1 in HEK-293; assay type: binding; conditions: 10µM, read-out: CDK5/CDK5R1 Inhibition at 10µM (%)
CDK11A/Cyclin L2 = target: T1, CDK11A/Cyclin L2 (Homo sapiens, UniProt Q9UQ88); assay: NanoBRET live-cell target engagement, CDK11A-NanoLuc/Cyclin L2 in HEK-293; assay type: binding; conditions: 10µM, read-out: CDK11a/L2 Inhibition at 10µM (%)
T1 sequence (Q9UQ88 1-783): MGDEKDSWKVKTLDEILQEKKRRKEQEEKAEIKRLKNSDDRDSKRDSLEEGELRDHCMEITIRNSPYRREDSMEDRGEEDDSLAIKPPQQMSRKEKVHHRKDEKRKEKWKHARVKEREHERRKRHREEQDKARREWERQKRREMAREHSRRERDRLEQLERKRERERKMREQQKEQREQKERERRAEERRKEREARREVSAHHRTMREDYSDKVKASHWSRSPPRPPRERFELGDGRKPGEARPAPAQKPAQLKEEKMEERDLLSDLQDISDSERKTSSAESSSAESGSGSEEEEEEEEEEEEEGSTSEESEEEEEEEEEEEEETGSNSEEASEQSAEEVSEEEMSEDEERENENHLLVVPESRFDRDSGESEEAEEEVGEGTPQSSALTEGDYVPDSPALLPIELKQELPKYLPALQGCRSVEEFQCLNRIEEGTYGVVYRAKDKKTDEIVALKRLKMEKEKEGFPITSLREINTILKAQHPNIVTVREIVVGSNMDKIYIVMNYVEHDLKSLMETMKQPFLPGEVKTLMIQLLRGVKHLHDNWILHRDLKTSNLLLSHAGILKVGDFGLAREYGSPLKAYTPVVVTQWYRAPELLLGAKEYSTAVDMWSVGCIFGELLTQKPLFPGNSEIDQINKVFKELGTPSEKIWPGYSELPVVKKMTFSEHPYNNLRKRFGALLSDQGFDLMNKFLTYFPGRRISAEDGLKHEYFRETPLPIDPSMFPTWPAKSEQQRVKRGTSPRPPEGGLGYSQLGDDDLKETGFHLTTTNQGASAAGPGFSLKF

CDK12/Cyclin K = CDK12/Cyclin K (Homo sapiens, UniProt Q9NYV4); assay: NanoBRET live-cell target engagement, CDK12-NanoLuc/Cyclin K in HEK-293; assay type: binding; conditions: 10µM, read-out: CDK12/K Inhibition at 10µM (%)
Chain of CDK12/Cyclin K (Q9NYV4 1-1481 isoform Q9NYV4-2): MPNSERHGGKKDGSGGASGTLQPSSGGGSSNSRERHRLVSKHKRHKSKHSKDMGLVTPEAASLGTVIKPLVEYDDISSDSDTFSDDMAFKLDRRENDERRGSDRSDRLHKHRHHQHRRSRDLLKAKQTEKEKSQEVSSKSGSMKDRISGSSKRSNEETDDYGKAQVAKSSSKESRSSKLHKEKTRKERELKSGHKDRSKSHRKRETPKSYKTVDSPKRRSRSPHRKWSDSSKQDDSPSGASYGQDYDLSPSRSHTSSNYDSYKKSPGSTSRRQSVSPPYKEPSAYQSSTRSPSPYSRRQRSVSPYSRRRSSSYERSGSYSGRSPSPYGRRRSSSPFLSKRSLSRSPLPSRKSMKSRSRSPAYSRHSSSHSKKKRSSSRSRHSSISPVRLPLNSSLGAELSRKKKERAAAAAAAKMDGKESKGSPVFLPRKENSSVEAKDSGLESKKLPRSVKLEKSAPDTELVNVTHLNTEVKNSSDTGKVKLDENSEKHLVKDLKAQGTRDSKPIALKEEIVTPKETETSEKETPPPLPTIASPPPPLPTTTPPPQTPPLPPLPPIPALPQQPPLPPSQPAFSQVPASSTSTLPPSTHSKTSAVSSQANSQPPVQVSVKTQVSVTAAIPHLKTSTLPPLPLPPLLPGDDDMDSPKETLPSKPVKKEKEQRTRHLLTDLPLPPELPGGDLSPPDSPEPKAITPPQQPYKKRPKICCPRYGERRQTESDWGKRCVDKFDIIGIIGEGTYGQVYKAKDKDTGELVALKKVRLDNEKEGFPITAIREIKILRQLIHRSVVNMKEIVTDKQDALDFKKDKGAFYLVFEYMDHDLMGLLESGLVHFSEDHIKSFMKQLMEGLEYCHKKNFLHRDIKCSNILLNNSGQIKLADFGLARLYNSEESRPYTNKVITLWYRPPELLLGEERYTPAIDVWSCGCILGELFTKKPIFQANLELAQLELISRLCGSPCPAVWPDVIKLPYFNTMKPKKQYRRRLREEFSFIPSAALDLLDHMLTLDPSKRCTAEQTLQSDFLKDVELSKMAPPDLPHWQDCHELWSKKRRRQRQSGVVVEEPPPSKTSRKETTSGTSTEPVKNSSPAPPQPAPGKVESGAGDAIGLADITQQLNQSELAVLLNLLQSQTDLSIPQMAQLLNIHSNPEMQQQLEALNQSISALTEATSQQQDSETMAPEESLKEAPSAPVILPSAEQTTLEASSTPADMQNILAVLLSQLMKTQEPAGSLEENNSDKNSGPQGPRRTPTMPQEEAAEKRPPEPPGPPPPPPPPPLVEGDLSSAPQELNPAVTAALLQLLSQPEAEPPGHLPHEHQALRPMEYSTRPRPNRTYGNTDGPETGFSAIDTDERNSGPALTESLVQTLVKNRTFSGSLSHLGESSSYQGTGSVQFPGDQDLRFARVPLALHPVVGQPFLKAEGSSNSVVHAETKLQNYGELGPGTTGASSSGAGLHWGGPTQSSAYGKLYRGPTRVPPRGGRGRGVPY
Chain of CDK12/Cyclin K (O75909 whole entry partner): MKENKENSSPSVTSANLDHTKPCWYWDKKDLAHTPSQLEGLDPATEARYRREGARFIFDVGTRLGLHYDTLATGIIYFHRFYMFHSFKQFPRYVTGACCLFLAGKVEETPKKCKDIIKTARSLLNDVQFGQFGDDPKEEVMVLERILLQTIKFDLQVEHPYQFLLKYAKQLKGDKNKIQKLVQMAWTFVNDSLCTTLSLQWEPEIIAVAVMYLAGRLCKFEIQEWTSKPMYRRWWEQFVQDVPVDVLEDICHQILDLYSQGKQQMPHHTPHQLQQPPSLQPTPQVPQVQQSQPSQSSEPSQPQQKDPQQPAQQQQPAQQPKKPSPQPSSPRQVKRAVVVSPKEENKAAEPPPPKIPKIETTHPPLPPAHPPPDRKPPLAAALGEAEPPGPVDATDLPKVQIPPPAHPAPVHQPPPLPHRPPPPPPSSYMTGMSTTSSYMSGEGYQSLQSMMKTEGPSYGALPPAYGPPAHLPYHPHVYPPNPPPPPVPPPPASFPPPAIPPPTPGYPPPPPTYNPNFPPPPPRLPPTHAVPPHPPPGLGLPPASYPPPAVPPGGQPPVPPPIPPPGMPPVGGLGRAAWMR

Chain of CDK1/Cyclin E1 (P06493 whole entry): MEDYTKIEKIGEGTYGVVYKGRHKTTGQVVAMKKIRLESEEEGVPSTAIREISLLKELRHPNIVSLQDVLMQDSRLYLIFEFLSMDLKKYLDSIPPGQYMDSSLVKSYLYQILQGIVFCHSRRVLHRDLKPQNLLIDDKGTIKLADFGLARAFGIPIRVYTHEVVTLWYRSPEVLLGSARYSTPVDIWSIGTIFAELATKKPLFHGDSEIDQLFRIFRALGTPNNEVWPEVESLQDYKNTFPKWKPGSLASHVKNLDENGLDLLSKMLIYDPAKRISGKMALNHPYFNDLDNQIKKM
Chain of CDK1/Cyclin E1 (P24864 whole entry partner): as the sequence (P24864 whole entry partner) above

CN1CCN(c2ccc(Nc3ncc4cc5n(c4n3)C3(CCCCC3)CNC5=O)nc2)CC1 [Trilaciclib]
inhibition at 10 µM (CDK1/Cyclin E1; average of experiments): 8.6%
inhibition at 10 µM (CDK1/Cyclin E1; independent experiment 1): 17.2%
inhibition at 10 µM (CDK1/Cyclin E1; independent experiment 2): -0.0634%
inhibition at 10 µM (CDK8/Cyclin C; average of experiments): 7.6%
inhibition at 10 µM (CDK8/Cyclin C; independent experiment 1): 7.9%
inhibition at 10 µM (CDK8/Cyclin C; independent experiment 2): 7.4%
inhibition at 10 µM (CDK4/Cyclin D1; average of experiments): 93%
inhibition at 10 µM (CDK4/Cyclin D1; independent experiment 1): 97%
inhibition at 10 µM (CDK4/Cyclin D1; independent experiment 2): 88.9%
inhibition at 10 µM (CDK17/Cyclin Y; average of experiments): 41.1%
inhibition at 10 µM (CDK17/Cyclin Y; independent experiment 1): 49.5%
inhibition at 10 µM (CDK17/Cyclin Y; independent experiment 2): 32.7%
IC50 (CDK17/Cyclin Y; average (± SEM where n=3)): 500 ± 200 nM
IC50 (CDK17/Cyclin Y; independent experiment 1): 113 nM
IC50 (CDK17/Cyclin Y; independent experiment 2): 800 nM
IC50 (CDK17/Cyclin Y; independent experiment 3): 628 nM
inhibition at 10 µM (CDK20/Cyclin H; independent experiment 1): 10%
inhibition at 10 µM (CDK20/Cyclin H; independent experiment 2): 5.6%
inhibition at 10 µM (CDK13/Cyclin K; average of experiments): 3.3%
inhibition at 10 µM (CDK13/Cyclin K; independent experiment 1): 1.9%
inhibition at 10 µM (CDK13/Cyclin K; independent experiment 2): 4.7%
inhibition at 10 µM (CDK15/Cyclin Y; average of experiments): 8%
inhibition at 10 µM (CDK15/Cyclin Y; independent experiment 1): 2.9%
inhibition at 10 µM (CDK15/Cyclin Y; independent experiment 2): 13.1%
inhibition at 10 µM (CDK16/Cyclin Y; independent experiment 1): 57.8%
inhibition at 10 µM (CDK16/Cyclin Y; independent experiment 2): 35.1%
IC50 (CDK16/Cyclin Y; average (± SEM where n=3)): 600 ± 200 nM
IC50 (CDK16/Cyclin Y; independent experiment 1): 162 nM
IC50 (CDK16/Cyclin Y; independent experiment 2): 870 nM
IC50 (CDK16/Cyclin Y; independent experiment 3): 721 nM
inhibition at 10 µM (CDK19/Cyclin C; average of experiments): 9.4%
inhibition at 10 µM (CDK19/Cyclin C; independent experiment 1): 10.3%
inhibition at 10 µM (CDK19/Cyclin C; independent experiment 2): 8.5%
inhibition at 10 µM (CDK14/Cyclin Y; average of experiments): 11.3%
inhibition at 10 µM (CDK14/Cyclin Y; independent experiment 1): 16.4%
inhibition at 10 µM (CDK14/Cyclin Y; independent experiment 2): 6.2%
inhibition at 10 µM (CDK2/Cyclin E1; average of experiments): 0.461%
inhibition at 10 µM (CDK2/Cyclin E1; independent experiment 1): 1.5%
inhibition at 10 µM (CDK2/Cyclin E1; independent experiment 2): -0.535%
inhibition at 10 µM (CDK10/Cyclin L2; average of experiments): 11.6%
inhibition at 10 µM (CDK10/Cyclin L2; independent experiment 1): 13.3%
inhibition at 10 µM (CDK10/Cyclin L2; independent experiment 2): 9.9%
inhibition at 10 µM (CDK3/Cyclin E1; average of experiments): 2.3%
inhibition at 10 µM (CDK3/Cyclin E1; independent experiment 1): 3.5%
inhibition at 10 µM (CDK3/Cyclin E1; independent experiment 2): 1.1%
inhibition at 10 µM (CDK11B/Cyclin L2; average of experiments): 23.5%
inhibition at 10 µM (CDK11B/Cyclin L2; independent experiment 1): 6.3%
inhibition at 10 µM (CDK11B/Cyclin L2; independent experiment 2): 40.7%
inhibition at 10 µM (CDK7; average of experiments): 8.6%
inhibition at 10 µM (CDK7; independent experiment 1): -3.8%
inhibition at 10 µM (CDK7; independent experiment 2): 20.9%
inhibition at 10 µM (CDK9/Cyclin K; average of experiments): 38.1%
inhibition at 10 µM (CDK9/Cyclin K; independent experiment 1): 30%
inhibition at 10 µM (CDK9/Cyclin K; independent experiment 2): 46.2%
inhibition at 10 µM (CDK5/CDK5R1; average of experiments): -10.2%
inhibition at 10 µM (CDK5/CDK5R1; independent experiment 1): 2.3%
inhibition at 10 µM (CDK5/CDK5R1; independent experiment 2): -22.7%
inhibition at 10 µM (CDK11A/Cyclin L2; average of experiments): 6.5%
inhibition at 10 µM (CDK11A/Cyclin L2; independent experiment 1): 7.3%
inhibition at 10 µM (CDK11A/Cyclin L2; independent experiment 2): 5.8%
inhibition at 10 µM (CDK12/Cyclin K; average of experiments): -2.6%
inhibition at 10 µM (CDK12/Cyclin K; independent experiment 1): -5.3%
inhibition at 10 µM (CDK12/Cyclin K; independent experiment 2): 0.155%

Reference: PMC7265341, “Quantifying CDK inhibitor selectivity in live cells” (Nature Communications, 2020)
